Test results taken from US6420563B1, “Small molecule modulators of G protein-coupled receptor six” (Arena Pharmaceuticals, Inc., priority 1998, dated 2002).

Legend:
GPR6:Gsα-Fusion Protein = target: T1, GPR6:Gsα-Fusion Protein (Homo sapiens, UniProt P46095); experiment: [35S]GTPγS membrane binding assay (Example 4A); assay type: biochemical; conditions: mean +/- standard deviation (number of assays in brackets); read-out: IC50 Values GTP Assay Example 4A
T1 construct: expressed in transfected cells
Procedure: The assay plates were then centrifuged at 400 rpm for 15 minutes at room temperature and then subsequently aspirated and counted in a scintillation counter.
Membranes expressing the GPCR6:Gsα-Fusion Protein (see Example 2) and for use in the direct identification of candidate compounds as inverse agonists, agonists or partial agonists were prepared as follows:
All materials were kept on ice throughout the procedure. Firstly, the media was aspirated from a confluent monolayer of cells, followed by rinse with 10 ml cold PBS, followed by aspiration. Thereafter, 5 ml of membrane Scrape Buffer was added to scrape cells; this was followed by transfer of cellular extract into 50 ml centrifuge tubes (centrifuged at 20,000 rpm for 17 minutes at 4° C.). Thereafter, the supernatant was aspirated and the pellet was resuspended in 30 ml Membrane Wash Buffer followed by centrifuge at 20,000 rpm for 17 minutes at 4° C. The supernatant was then aspirated and the pellet resuspended in Binding Buffer. This was then homogenized using a Brinkman polytron™ homogenizer (15-20 second bursts until the all material was in suspension). This is referred to herein as “Membrane Protein”.
Candidate compounds (Tripos, Inc., St. Louis, Mo.) were received in 96-well plates (these can be frozen at −80° C.). Membrane Protein (or membranes with expression vector excluding the GPR6:Gsα-Fusion Protein, as control), were homogenized briefly until in suspension. Protein concentration was then determined using the Bradford Protein Assay set forth above. […] Thereafter, 100 ul GDP Buffer was added to each well of a Wallac Scintistrip™ (Wallac). A 5 ul pin-tool was then used to transfer 5 ul of a candidate compound into such well (i.e., 5 ul in total assay volume of 200 ul is a 1:40 ratio such that the final screening concentration of the candidate compound is 10 uM). Again, to avoid contamination, after each transfer step the pin tool was rinsed in three reservoirs comprising water (1×), ethanol (1×) and water (2×)—excess liquid should be shaken from the tool after each rinse and dried with paper towels and kimwipes™. Thereafter, 50 ul of Membrane Protein was added to each well (a control well comprising membranes without the GPCR Fusion Protein is also utilized), and pre-incubated for 5-10 minutes at room temperature (the plates were covered with foil in that the candidate compounds obtained from Tripos are light sensitive). Thereafter, 50 ul of [^35S]GTPγS (0.6 nM) in Binding Buffer was added to each well, followed by incubation on a shaker for 60 minutes at room temperature (again, in this example, plates were covered with foil). The assay was then stopped by spinning of the plates at 4000 RPM for 15 minutes at 22° C. The plates were then aspirated with an 8 channel manifold and sealed with plastic plate covers. The plates were then read on a Wallac 1450 using setting “Prot. #37” (as per manufacturer instructions).
The initial or “primary” screen designed to directly identify, e.g., human GPR6 receptor inverse agonists, consisted of the membrane-based GTPγS binding assay of Example 4A utilizing membranes prepared from 293 stable cells. Candidate compounds directly identified as inhibiting receptor-mediated increases in GTPγS as set forth below were considered active “leads”.
It is preferred that following such direct identification, IC50 (inverse agonist) or EC50 (agonist) values be determined; those having ordinary skill in the art are credited with utilizing IC50 and EC50 assay protocols of choice. FIG. 4 provides a representative IC50 curve for compound ARE112 using the assay protocol of Example 4A.

GPR6 = target: T2, GPR6 (Homo sapiens, UniProt P46095); experiment: membrane-based cyclic AMP confirmation assay (Example 4C); assay type: biochemical; conditions: mean +/- standard deviation (number of assays in brackets); read-out: IC50 Values Cyclic AMP Assay Example 4C
T2 construct: expressed in transfected cells; 293 cells are used elsewhere
Description: Using an independent assay approach to provide confirmation of a directly identified candidate compound as set forth above, it is preferred that a confirmation assay then be utilized. In this case, the preferred confirmation assay is membrane-based cyclic AMP (cAMP) assay.
A modified Flash Plate™ Adenylyl Cyclase kit (New England Nuclear; Cat. No. SMP004A) was utilized for confirmation of candidate compounds directly identified as inverse agonists and agonists to endogenous, constitutively activated orphan GPCRs in accordance with the following protocol.
Transfected stable cells were harvested approximately three days after transfection. Membranes were prepared by homogenization of suspended cells in buffer containing 20 mM HEPES, pH 7.4 and 10 mM MgCl2. Homogenization was performed on ice using a Brinkman Polytron™ for approximately 10 seconds. The resulting homogenate was centrifuged at 20,000 rpm for 20 minutes at 4° C. The resulting pellet was then resuspended in buffer containing 20 mM HEPES, pH 7.4 and 0.1 mM EDTA, homogenized for 10 seconds, followed by centrifugation at 20,000 rpm for 20 minutes at 4° C. The resulting pellet can be stored at −80° C. until utilized. On the day of direct identification screening, the membrane pellet is slowly thawed at room temperature, resuspended in buffer containing 20 mM HEPES, pH 7.4, 100 mM NaCl and 10 mM MgCL2, to yield a final protein concentration of 0.60 mg/ml (the resuspended membranes are placed on ice until use).
Candidate compounds identified as per above (if frozen, thawed at room temperature) were added to plate wells (3 μl/well; 12 μM final assay concentration), together with 50 μl Membrane Protein (30 μg/well) and 50 μl of Assay Buffer. This admixture was then incubated for 30 minutes at room temperature, with gentle shaking.
Following the incubation, 100 μl of Detection Buffer was added to each well, followed by incubation for 2-20 hours. Plates were subsequently aspirated and then counted in a Wallac MicroBeta™ plate reader using “Prot. #31” (as per manufacturer instructions).

[1] = Food/water intake and body weight in 24-hour food deprived rats, oral gavage (PO); assay type: in vivo, rat
Procedure: Based upon the in vivo data developed, oral bioavailability of compound ARE112 was determined. The compound was administered by oral gavage at doses ranging from 6.75 to 54 mg/kg. The data presented in FIGS. 9A and 9B support the conclusion that oral administration of ARE112 also decreases food intake in both food-deprived and non-food deprived rats. […] In FIG. 9A, rats were deprived 24 hours prior to oral administration of the compound. In this assay, the vehicle-treated rats at 2.5 hours consumed […] of food while injected rats; particularly rats administered with 27 and 54 mg/kg of ARE 112, ate about 6 and 4 grams, respectively. […] (See, FIG. 9A).
Several other GPR6 inverse agonists were also assessed under 24-hour food deprived conditions, with PO administration. The analogs listed below were tested at 200 μmol/kg, which is equivalent to 54 mg/kg. In addition, ARE114 was also assessed at […]. Data are summarized below in Table C:
In a second assay, tested under the same conditions, several other analogs were assessed at 100 μmol/kg.
In FIG. 10, rats were deprived 24 hours prior to oral administration of the compound. In this assay, analogs ARE130, ARE135, ARE136, and ARE140, were administered at a dose of 100 μmol/kg. Three analogs, particularly, ARE130, ARE136 and ARE140 evidenced a slow intake of food (e.g., about 1 to 1.5 grams every two hours) over an eight hour period post-administration; while the vehicle rat consumed about 2 to 2.5 grams food every two hours. Similar to the vehicle rat, analog ARE135, an opened ring structure, evidenced that over an eight hour period post-administration the rats increasingly consumed about 2.5 grams every two hours. (See, FIG. 10A). Furthermore, the body weight of the vehicle rat and administered rats with analog ARE135 gained about 19.5 grams. On the other hand, the closed ring structures evidenced a decrease in body weight gain as follows: ARE112-6 grams, ARE130-9 grams, ARE136-11 grams and ARE140-14 grams. See, FIG. 10C.

[2] = 100 μmol/kg PO, second assay, Table D, vehicle 19.25

T1 sequence (P46095 with tags, fused parts or gaps): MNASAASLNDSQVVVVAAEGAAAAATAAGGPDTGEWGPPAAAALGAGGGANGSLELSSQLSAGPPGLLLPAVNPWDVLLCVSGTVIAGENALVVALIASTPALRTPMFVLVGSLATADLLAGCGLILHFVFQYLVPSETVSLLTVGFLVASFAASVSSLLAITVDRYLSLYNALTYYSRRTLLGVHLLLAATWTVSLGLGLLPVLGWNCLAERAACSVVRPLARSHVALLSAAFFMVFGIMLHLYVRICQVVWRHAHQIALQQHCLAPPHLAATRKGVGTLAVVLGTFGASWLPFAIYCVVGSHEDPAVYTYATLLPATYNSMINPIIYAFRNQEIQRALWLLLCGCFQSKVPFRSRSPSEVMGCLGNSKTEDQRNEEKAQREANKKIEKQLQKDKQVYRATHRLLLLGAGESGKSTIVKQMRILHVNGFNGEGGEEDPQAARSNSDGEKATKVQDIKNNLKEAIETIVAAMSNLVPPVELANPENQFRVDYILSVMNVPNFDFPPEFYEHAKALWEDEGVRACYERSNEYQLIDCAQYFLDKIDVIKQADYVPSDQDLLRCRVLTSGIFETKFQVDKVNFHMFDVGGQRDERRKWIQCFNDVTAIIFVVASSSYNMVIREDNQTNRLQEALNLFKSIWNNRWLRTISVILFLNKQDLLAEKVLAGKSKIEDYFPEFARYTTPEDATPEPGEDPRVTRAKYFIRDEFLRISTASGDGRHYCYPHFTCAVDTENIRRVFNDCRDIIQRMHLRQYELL
T2 sequence (P46095 whole entry): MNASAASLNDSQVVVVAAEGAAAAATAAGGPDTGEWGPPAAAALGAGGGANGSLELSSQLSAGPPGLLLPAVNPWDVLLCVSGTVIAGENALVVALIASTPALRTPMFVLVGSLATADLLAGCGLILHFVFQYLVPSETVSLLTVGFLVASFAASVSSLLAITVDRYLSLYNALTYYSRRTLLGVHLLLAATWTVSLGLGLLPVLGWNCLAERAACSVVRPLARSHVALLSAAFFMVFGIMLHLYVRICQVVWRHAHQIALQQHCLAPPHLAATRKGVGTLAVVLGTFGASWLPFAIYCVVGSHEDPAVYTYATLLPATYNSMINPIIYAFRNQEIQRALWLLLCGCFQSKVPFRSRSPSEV

## O=C(NC(=S)N1CCNC1=S)c1cccs1 [ARE111, N-(2-thioxo-imidazolidine-1-carbothioyl)-thiophene-2-carboxamide]
GPR6:Gsα-Fusion Protein
  IC50: 2.79 µM
GPR6
  IC50: 1.96 µM

## O=C(NC(=S)N1CCNC1=S)c1ccccc1 [ARE113, N-(2-thioxo-imidazolidine-1-carbothioyl)-benzamide]
GPR6:Gsα-Fusion Protein
  IC50: 100 µM

## O=C(NC(=S)N1CCNC1=S)c1ccc(C(F)(F)F)cc1 [ARE115, N-(2-thioxo-imidazolidine-1-carbothioyl)-4-trifluoromethylbenzamide]
GPR6:Gsα-Fusion Protein
  IC50: 1.57 µM
GPR6
  IC50: 3.65 µM

## O=C(N=C1SSC2=NCCN21)c1ccc(C(F)(F)F)cc1 [ARE116, N-(5,6-dihydro-3H-imidazo[2,1-c]-1,2,4-dithiazol-3-ylidene)-4-trifluoromethylbenzamide]
GPR6:Gsα-Fusion Protein
  IC50: 0.57 µM
GPR6
  IC50: 0.17 µM

## CC(C)(C)c1ccc(C(=O)N=C2SSC3=NCCN32)cc1 [ARE118, N-(5,6-dihydro-3H-imidazo[2,1-c]-1,2,4-dithiazol-3-ylidene)-4-tert-butylbenzamide]
GPR6:Gsα-Fusion Protein
  IC50: 0.65 µM
GPR6
  IC50: 0.37 µM

## O=C(NC(=S)N1CCNC1=S)c1ccc(Cl)cc1 [ARE119, N-(2-thioxo-imidazolidine-1-carbothioyl)-4-chlorobenzamide]
GPR6:Gsα-Fusion Protein
  IC50: 0.45 µM
GPR6
  IC50: 1.97 µM

## COc1ccc(C(=O)NC(=S)N2CCNC2=S)cc1 [ARE121, N-(2-thioxo-imidazolidine-1-carbothioyl)-4-methoxybenzamide]
GPR6:Gsα-Fusion Protein
  IC50: 122 µM
GPR6
  IC50: 55 µM

## COc1ccc(C(=O)N=C2SSC3=NCCN32)cc1 [ARE122, N-(5,6-dihydro-3H-imidazo[2,1-c]-1,2,4-dithiazol-3-ylidene)-4-methoxybenzamide]
GPR6:Gsα-Fusion Protein
  IC50: 0.83 µM
GPR6
  IC50: 0.21 µM

## COc1cccc(C(=O)NC(=S)N2CCNC2=S)c1 [ARE123, N-(2-thioxo-imidazolidine-1-carbothioyl)-3-methoxybenzamide]
GPR6:Gsα-Fusion Protein
  IC50: 56 µM
GPR6
  IC50: 51 µM

## COc1cccc(C(=O)N=C2SSC3=NCCN32)c1 [ARE124, N-(5,6-dihydro-3H-imidazo[2,1-c]-1,2,4-dithiazol-3-ylidene)-3-methoxybenzamide]
GPR6:Gsα-Fusion Protein
  IC50: 0.31 µM
GPR6
  IC50: 0.4 µM

## Cc1cccc(C(=O)NC(=S)N2CCNC2=S)c1 [ARE125, N-(2-thioxo-imidazolidine-1-carbothioyl)-3-methylbenzamide]
GPR6:Gsα-Fusion Protein
  IC50: 3.8 µM
GPR6
  IC50: 120 µM

## Cc1cccc(C(=O)N=C2SSC3=NCCN32)c1 [ARE126, N-(5,6-dihydro-3H-imidazo[2,1-c]-1,2,4-dithiazol-3-ylidene)-3-methylbenzamide]
GPR6:Gsα-Fusion Protein
  IC50: 0.79 µM
GPR6
  IC50: 0.14 µM

## O=C(NC(=S)N1CCNC1=S)c1ccc(F)cc1 [ARE127, N-(2-thioxo-imidazolidine-1-carbothioyl)-4-fluorobenzamide]
GPR6:Gsα-Fusion Protein
  IC50: 1.25 µM
GPR6
  IC50: 0.48 µM

## O=C(NC(=S)N1CCNC1=S)c1cccc(F)c1 [ARE129, N-(2-thioxo-imidazolidine-1-carbothioyl)-3-fluorobenzamide]
GPR6:Gsα-Fusion Protein
  IC50: 3.19 µM
GPR6
  IC50: 2.62 µM

## O=C(NC(=S)N1CCNC1=S)c1ccccc1F [ARE131, N-(2-thioxo-imidazolidine-1-carbothioyl)-2-fluorobenzamide]
GPR6:Gsα-Fusion Protein
  IC50: 43 µM

## O=C(N=C1SSC2=NCCN21)c1ccccc1F [ARE132, N-(5,6-dihydro-3H-imidazo[2,1-c]-1,2,4-dithiazol-3-ylidene)-2-fluorobenzamide]
GPR6:Gsα-Fusion Protein
  IC50: 0.35 µM
GPR6
  IC50: 0.1 µM

## O=C(NC(=S)N1CCNC1=S)c1ccc(F)cc1F [ARE133, N-(2-thioxo-imidazolidine-1-carbothioyl)-2,4-difluorobenzamide]
GPR6:Gsα-Fusion Protein
  IC50: 0.11 µM
GPR6
  IC50: 0.17 µM

## O=C(/N=C1\SSC2=NCCN21)c1ccc2ccccc2c1 [ARE136]
[1]; 100 μmol/kg PO, second assay, Table D, vehicle 14.0
  Cumulative Food Intake (g) (8 hr post administration): 9.0 g
[1]; [2]
  Body Weight Gain (g) (6 hr post administration): 11.0 g
  Cumulative Water Intake (g) (6 hr post administration): 15.25 g
[1]; 100 μmol/kg oral
  water drunk less than the vehicle animal (FIG. 10B): ~4 grams
[1]; 100 μmol/kg oral, vehicle about 19.5 grams
  body weight gain (FIG. 10C): 11 grams

## O=C(NC(=S)N1CCNC1=S)c1cccc2ccccc12 [ARE137, N-(2-thioxo-imidazolidine-1-carbothioyl)-naphthyl-1-carboxamide]
GPR6
  IC50: 100 µM

## O=C(N=C1SSC2=NCCN21)c1cnn(-c2ccc(Cl)cc2)c1C(F)(F)F [ARE152, N-(5,6dihydro-3H-imidazo[2,1-c]-1,2,4-dithiazol-3-ylidene)-2-(4-chlorophenyl)-3-(trifluoromethyl)pyrazole-4-carboxamide]
GPR6:Gsα-Fusion Protein
  IC50: 0.19 µM

## O=C(NC(=S)N1CCNC1=S)c1cnn(-c2ccc(Cl)cc2)c1C(F)(F)F [ARE153, N-(2-thioxo-imidazolidine-1-carbothioyl)-2-(4-chlorophenyl)-3-(trifluoromethyl)pyrazole-4-carboxamide]
GPR6:Gsα-Fusion Protein
  IC50: 2.46 µM

## CSc1ncccc1C(=O)NC(=S)N1CCNC1=S [ARE154, N-(2-thioxo-imidazolidine-1-carbothioyl)-pyridine-2-methylthio-3-carboxamide]
GPR6
  IC50: 80 µM
